This is an account of results in US11396517B1, “Exo-aza spiro inhibitors of menin-MLL interaction” (Janssen Pharmaceutica NV, priority 2017, dated 2022).

Like-named read-outs stand apart in the source and are kept apart here. Where only a bound is given, the exact number is not on record here.

One experiment concerns MOLM14. As to the kind of experiment: Proliferation assay B (spheroid assay) MOLM14. Format: cell-based, human. Conditions: MOLM14 cells, confluence at day 8, absolute IC50, read-out: (3b) Spheroid assay MOLM14 (IC50(μM)) Assay B. The method, then:
3b) Proliferation Assay B
The anti-proliferative effect of menin/MLL protein/protein interaction inhibitor test compounds was assessed in human leukemia cell lines. The cell lines MV-4-11 and MOLM14 harbor MILL translocations and express the MILL fusion proteins MLL-AF4 and MLL-AF9, respectively, as well as the wildtype protein from the second allele. […] K562 was used as a control cell line containing two MLL wildtype alleles in order to exclude compounds that display general cytotoxic effects.
MV-4-11 and MOLM14 were cultured in RPMI-1640 (Sigma Aldrich) supplemented with 10% fetal bovine serum (HyClone), 2 mM L-glutamine (Sigma Aldrich) and 50 μg/ml gentamycin (Gibco). K562 were propagated in RPMI-1640 (Sigma Aldrich) supplemented with 20% fetal bovine serum (HyClone), 2 mM L-glutamine (Sigma Aldrich) and 50 μg/ml gentamycin (Gibco).
In order to assess the anti-proliferative effects, 1,500 MV-4-11, 300 MOLM14 cells or 750 K562 cells were seeded in 200 μl media per well in 96-well round bottom, ultra-low attachment plates (Costar, catalogue number 7007). Cell seeding numbers were chosen based on growth curves to ensure linear growth throughout the experiment. Test compounds were added at different concentrations and the DMSO content was normalized to 0.3%. Cells were incubated for 8 d at 37° C. and 5% CO2. Spheroid like growth was measured in real-time by live-cell imaging (IncuCyteZOOM, Essenbio, 4× objective) acquiring images at day 8. Confluence (%) as a measure of spheroid size was determined using an integrated analysis tool.
In order to determine the effect of the test compounds over time, the confluence in each well as a measure of spheroid size, was calculated. Confluence […] at the beginning of the experiment (t=0) was used as baseline for the calculation.
Absolute IC50 values were calculated as percent change in confluence as follows:
LC=Low Control: cells treated with 1 μM of the cytotoxic agent staurosporin
HC=High Control: Mean confluence (%) (DMSO treated cells) % Effect=100−(100*(Sample−LC)/(HC−LC))
To determine the IC50 a curve is fitted to the plot of % Effect vs Log 10 compound concentration using a sigmoidal fit with a variable slope and fixing the maximum to 100% and the minimum to 0%.

For another experiment, the target named is T1, menin (Homo sapiens, UniProt O00255, T541A).
T1 construct: Menin (a.a. 1-610-6×his tag)
T1 sequence (O00255 with tags, fused parts or gaps T541A): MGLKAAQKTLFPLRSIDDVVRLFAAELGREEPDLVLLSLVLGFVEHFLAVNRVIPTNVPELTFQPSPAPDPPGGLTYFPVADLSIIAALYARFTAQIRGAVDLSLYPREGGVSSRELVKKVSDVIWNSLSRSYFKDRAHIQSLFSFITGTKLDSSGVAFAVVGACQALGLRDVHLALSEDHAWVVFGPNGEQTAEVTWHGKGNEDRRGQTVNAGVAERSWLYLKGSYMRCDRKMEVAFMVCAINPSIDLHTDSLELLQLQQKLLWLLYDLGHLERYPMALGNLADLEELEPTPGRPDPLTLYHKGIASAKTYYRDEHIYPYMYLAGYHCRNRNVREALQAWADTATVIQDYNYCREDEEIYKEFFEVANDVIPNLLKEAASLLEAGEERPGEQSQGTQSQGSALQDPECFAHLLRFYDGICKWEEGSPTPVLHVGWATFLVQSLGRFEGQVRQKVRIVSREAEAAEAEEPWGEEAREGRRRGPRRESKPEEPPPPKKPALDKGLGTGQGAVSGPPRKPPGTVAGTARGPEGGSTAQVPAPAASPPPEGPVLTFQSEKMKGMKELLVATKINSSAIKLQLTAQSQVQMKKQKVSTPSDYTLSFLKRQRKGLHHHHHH
The experiment can be described thus: Menin/MLL homogenous time-resolved fluorescence (HTRF) assay. Type of experiment: binding. In short, it runs like this: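 Displacement of 75 nM FITC-MBM1 from terbium-cryptate-labeled His-tagged menin 1-610 ([…]) was read as the 520/490 nm HTRF ratio. Compound (11-point, 3-fold series) got 5 min with menin before peptide, then 15 min at ambient; 0.5% DMSO, Tris pH 7.5.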

[1] abbreviates: location 2, read-out: (2) location 2 Menin HTRF assay (IC50 (nM)).

A word on the IC50: it is the midpoint of a concentration-inhibition curve. As for `CS(=O)(=O)N1CCN(Cc2ccc(NC3CC4(CCN(c5ncnc6sc(CC(F)(F)F)cc56)C4)C3)cc2)CC1` (mixture of isomers) [Compound 351], the IC50 was 3.51 µM in the experiment with MOLM14 (Homo sapiens, MOLM-14, 192 h) and 15.5 nM on menin (setting [1]).

Consider `Nc1nc(N2CCC3(CC(Nc4ccc5[nH]c(=O)[nH]c5c4)C3)C2)c2cc(CC(F)(F)F)sc2n1` (mixture of isomers) [Compound 381], for which the IC50 is more than 3.75 µM in the experiment on MOLM14 (Homo sapiens, MOLM-14, 192 h) and 9.4 nM on menin (setting [1]).

Consider `CNC(=O)c1ccc(NC2CC3(CCN(c4ncnc5sc(CC(F)(F)F)cc45)C3)C2)c(Cl)c1` (single isomer, unassigned) [Compound 69], for which the figures for the IC50 in the experiment with MOLM14 and on menin (setting [1]) were 0.69 µM and 1.7 nM, respectively.

As for `CN1CCC(c2cc(NC3CC4(CCN(c5ncnc6sc(CC(F)(F)F)cc56)C4)C3)ccc2C#N)CC1` (single isomer, unassigned) [Compound 80], the values for the IC50 with MOLM14 and on menin (setting [1]) were 0.95 µM and 8.7 nM, respectively.

For the compound `COCCNC(=O)c1ccc(NC2CC3(CCN(c4ncnc5sc(CC(F)(F)F)cc45)C3)C2)cc1` (single isomer, unassigned) [Compound 86], the IC50 was more than 3.75 µM in the experiment with MOLM14 (Homo sapiens, MOLM-14, 192 h) and 91.8 nM at menin (setting [1]).

For the compound `O=C(NCCN1CCOCC1)c1ccc(NC2CC3(CCN(c4ncnc5sc(CC(F)(F)F)cc45)C3)C2)cc1` (single isomer, unassigned) [Compound 88], the IC50 was 0.99 µM in the experiment on MOLM14 (Homo sapiens, MOLM-14, 192 h) and 3.8 nM at menin (setting [1]).

Turning to `Cn1c(=O)[nH]c2cc(NC3CC4(CCN(c5ncnc6sc(CC(F)(F)F)cc56)C4)C3)ccc21` (single isomer, unassigned) [Compound 90], the IC50 with MOLM14 (Homo sapiens, MOLM-14, 192 h) is 0.85 µM; at menin (setting [1]) it was 20.2 nM.

Turning to `CS(=O)(=O)N[C@H]1CC[C@H](NC2CC3(CCN(c4ncnc5sc(CC(F)(F)F)cc45)C3)C2)CC1` (single isomer, unassigned) [Compound 103], the IC50 in the experiment on MOLM14 (Homo sapiens, MOLM-14, 192 h) was more than 3.75 µM; on menin (location 1, read-out: (2) location 1 Menin HTRF assay (IC50 (nM))), 1160 nM; at menin (setting [1]), 1200 nM.

For the compound `N#Cc1ccc(NC2CC3(CCN(c4ncnc5sc(CC(F)(F)F)cc45)C3)C2)nc1` (single isomer, unassigned) [Compound 175], the IC50 is 1.09 µM with MOLM14 and 33.4 nM at menin (setting [1]).

As for `CS(=O)(=O)N1CCN(C(=O)c2ccc(NC3CC4(CCN(c5ncnc6sc(CC(F)(F)F)cc56)C4)C3)cc2)CC1` (single isomer, unassigned) [Compound 178], the half-inhibitory concentration (IC50) was more than 3.75 µM in the experiment with MOLM14 (Homo sapiens, MOLM-14, 192 h) and 127 nM on menin (setting [1]).

With `COC1CCN(C(=O)c2ccc(NC3CC4(CCN(c5ncnc6sc(CC(F)(F)F)cc56)C4)C3)cc2)CC1` (single isomer, unassigned) [Compound 183], the IC50 was more than 3.75 µM in the experiment with MOLM14 (Homo sapiens, MOLM-14, 192 h) and 82 nM at menin (setting [1]).

`O=C(c1ccc(NC2CC3(CCN(c4ncnc5sc(CC(F)(F)F)cc45)C3)C2)cc1)N1CCNCC1` (single isomer, unassigned) [Compound 187]: the 50% inhibitory concentration (IC50) in the experiment on MOLM14 (Homo sapiens, MOLM-14, 192 h) was more than 3.75 µM; at menin (setting [1]) it was 1580 nM.

As to `CS(=O)(=O)N1CCN(CCNC(=O)c2ccc(NC3CC4(CCN(c5ncnc6sc(CC(F)(F)F)cc56)C4)C3)cc2)CC1` (single isomer, unassigned) [Compound 189], the IC50 with MOLM14 (Homo sapiens, MOLM-14, 192 h) was more than 3.75 µM; at menin (setting [1]) it was 143 nM.

For the compound `CS(=O)(=O)N1CCN(CCNC(=O)c2ccc(NC3CC4(CCN(c5ncnc6sc(CC(F)(F)F)cc56)C4)C3)cc2)CC1` (single isomer, unassigned) [Compound 190], the IC50 with MOLM14 stood at 2.1 µM; on menin (setting [1]), 9.2 nM.

With `CNC(=O)c1ccc(NC2CC3(CCN(c4ncnc5sc(CC(F)(F)F)cc45)C3)C2)cc1F` (single isomer, unassigned) [Compound 205], the IC50 in the experiment with MOLM14 (Homo sapiens, MOLM-14, 192 h) was 1.02 µM; at menin (setting [1]), 2.2 nM.

For the compound `CNC(=O)c1ccc(NC2CC3(CCN(c4ncnc5sc(CC(F)(F)F)cc45)C3)C2)cn1` (single isomer, unassigned) [Compound 217], the IC50 was found to be 1.69 µM in the experiment on MOLM14 and 3.7 nM at menin (setting [1]).

Take `CNC(=O)c1ccc(NC2CC3(CCN(c4ncnc5sc(CC(F)(F)F)cc45)C3)C2)cn1` (single isomer, unassigned) [Compound 218]: the results for the IC50 in the experiment on MOLM14 and at menin (setting [1]) were more than 3.75 µM and 64.9 nM, respectively.
